Test results reported in the NIST ThermoML archive (doi:10.1021/je049950g).

Conditions: Liquid

CC1COC(=O)O1 (stereo not given) [4-methyl-1,3-dioxolan-2-one]
Conditions	vapor or sublimation pressure [kPa]
348.15 K	0.2509
353.15 K	0.3277
358.15 K	0.4377
363.15 K	0.5553
368.15 K	0.7206
373.15 K	0.9231
378.15 K	1.167
388.15 K	1.856
393.15 K	2.284
398.15 K	2.826
403.15 K	3.482
408.15 K	4.265
413.15 K	5.153
418.15 K	6.226
423.15 K	7.454
428.15 K	8.959
433.15 K	10.78
438.15 K	12.69
443.15 K	14.81
448.15 K	17.81
453.15 K	20.5
458.15 K	24.08
463.15 K	27.96
468.15 K	33.01
473.15 K	37.77

CC(=O)N(C)C [N,N-dimethylethanamide]
Conditions	vapor or sublimation pressure [kPa]
298.15 K	0.2936
303.15 K	0.3925
308.15 K	0.5179
313.15 K	0.6782
318.15 K	0.8946
323.15 K	1.163
328.15 K	1.526
333.15 K	1.983
338.15 K	2.556
343.15 K	3.27
348.15 K	4.135
353.15 K	5.192
363.15 K	7.995
368.15 K	9.806
373.15 K	11.98
378.15 K	14.52
383.15 K	17.5
388.15 K	21.01
393.15 K	25.03
398.15 K	29.69
403.15 K	35.02
408.15 K	41.11
413.15 K	48.06
418.15 K	55.91
423.15 K	64.78
